Measured values published in patent US12410355B2, “Compositions and methods for carbon dioxide solidification” (CHEVRON U.S.A. INC., priority 2022, dated 2025).

Tests used:
[1] = GBIG·(HCO3)2(H2O)2(s) precipitation upon contacting with CO2(g); type: physicochemical; conditions: CO2 gas 0.5 psig, 30 minutes
Procedure: GBIG·(HCO3)2(H2O)2(s) Precipitation Upon Contacting with CO2(g)
Pour approximately 5 ml of the synthesized chemical solution into the polycarbonate reservoir. Open the CO2 gas cylinder valve and take note of the pressure. Open the delivery valve of the regulator. Increase the delivery pressure to 0.5 psig by turning the regulator knob. Open the 3-way valve connected to the bottom of the polycarbonate reservoir to initiate CO2 gas flow into the reservoir. Watch for precipitation in the liquid through the transparent polycarbonate reservoir wall for 30 minutes. For temperature dependence testing: Samples were placed in ovens at temperature of interest for 30 minutes, then used in the procedure detailed above.
Results for the precipitation test for varying salinity and glyoxal-bis(iminoguanidine) (GBIG) concentration are shown in Tables 2-4 and FIGS. 3A-3C. Table 2 and FIG. 3A show results for 1 wt % NaCl and 0.397 wt % GBIG. Table 3 and FIG. 3B show results for 0.1 wt % NaCl and 0.243 wt % GBIG. Table 4 and FIG. 3C show results for 20 wt % NaCl and 0.064 wt % GBIG.

[2] = Solubility limit (Ksp) of GBIG in NaCl brine; type: physicochemical; conditions: 25° C., 20 minutes of sonication
Procedure: Solubility limit Ksp at 25° C. and 20 minutes of sonication. Solubility limit strongly depends on salinity: nonlinear dependence.

N=C(N)NN=CC=NNC(=N)N [GBIG, glyoxal-bis(iminoguanidine)]
Precipitation? ([1]; 0.1 wt % NaCl and 0.243 wt % GBIG, 25° C.): Yes | Precipitation? ([1]; 0.1 wt % NaCl and 0.243 wt % GBIG, 65° C.): Yes | Precipitation? ([1]; 0.1 wt % NaCl and 0.243 wt % GBIG, 80° C.): Yes | Precipitation? ([1]; 0.1 wt % NaCl and 0.243 wt % GBIG, 100° C.): Yes | Precipitation? ([1]; 0.1 wt % NaCl and 0.243 wt % GBIG, 115° C.): Yes | Precipitation? ([1]; 1 wt % NaCl and 0.397 wt % GBIG, 25° C.): Yes | Precipitation? ([1]; 1 wt % NaCl and 0.397 wt % GBIG, 65° C.): Yes | Precipitation? ([1]; 1 wt % NaCl and 0.397 wt % GBIG, 80° C.): Yes | Precipitation? ([1]; 1 wt % NaCl and 0.397 wt % GBIG, 100° C.): Yes | Precipitation? ([1]; 1 wt % NaCl and 0.397 wt % GBIG, 115° C.): Yes | Precipitation? ([1]; 20 wt % NaCl and 0.064 wt % GBIG, 25° C.): Yes | Precipitation? ([1]; 20 wt % NaCl and 0.064 wt % GBIG, 65° C.): Yes | Precipitation? ([1]; 20 wt % NaCl and 0.064 wt % GBIG, 80° C.): Yes | Precipitation? ([1]; 20 wt % NaCl and 0.064 wt % GBIG, 100° C.): Yes | Precipitation? ([1]; 20 wt % NaCl and 0.064 wt % GBIG, 115° C.): Yes | GBIG Ksp ([2]; 0.1 wt % NaCl): 0.0143 | Solubility limit, GBIG (wt %) ([2]; 0.1 wt % NaCl): 0.243 wt % | GBIG Ksp ([2]; 1 wt % NaCl): 0.0234 | Solubility limit, GBIG (wt %) ([2]; 1 wt % NaCl): 0.397 wt % | GBIG Ksp ([2]; 20 wt % NaCl): 0.0038 | Solubility limit, GBIG (wt %) ([2]; 20 wt % NaCl): 0.064 wt %
